According to patent publication US8835403B2, “Algin oligosaccharides and the derivatives thereof as well as the manufacture and the use of the same” (priority 2004, dated 2014):

Columns and labels:
[1] = test system: diabetic mice induced by STZ; assay: Blood glucose of diabetic mice induced by streptozotocin (STZ); format: in vivo; conditions: dimethyldiguanide 5 mg/kg for 10 days, blood on 11th day; STZ 150 mg/kg i.p.
Method: Sixty male NIH mice (weighed 18-22 g) are randomly divided to control, model, 50, 150, 450 mg/kg 6-mer-treated and 5 mg/kg dimethyldiguanide-treated groups. The mice are injected intraperitoneally with 150 mg/kg STZ except control group at the 1st day. Then the mice are given accordingly drugs consecutively for 10 days and eyeballs are picked out to extract blood on the 11th day. The blood is taken to measure the glucose concentration.

GSH-PX = GSH-PX activity in cerebral cortex and hippocampus of Aβ1-40-induced AD mice; format: in vivo; conditions: HBY 0.2 mg/kg
Method: (§1) Following the behavioral test, rats are decapitated. Cerebral cortex and hippocampus are dissected on ice immediately, and stored at −80° C. after quick freezing in liquid nitrogen for 1 hour. MDA, SOD, GSH-PX, Na^+, K^+-ATPase, AchE and CHAT activities in the brain regions are determined using the respective kits. The homogenates of cerebral cortex and hippocampus are prepared with saline with a final concentration of 10% and 5%. The supernatant were obtained after centrifuging at 3600 rpm to test MDA, CuZn-SOD, GSH-PX, Na^+K^+-ATPase, AchE, and CHAT activities. The activity of ChAT is determined with isotope-labeled method. The other indexes and amount of total proteins are tested with the respective kits supplied by Nanjing Jiancheng Bioengineering Institute.
The GSH-PX activity in cerebral cortex and hippocampus is decreased after usage of Aβ with significant difference to the control group in hippocampus (p<0.05).

SOD = SOD activity of cerebral cortex and hippocampus of Aβ1-40-induced AD mice; format: in vivo; conditions: HBY 0.2 mg/kg
[2] = test system: AD mice induced by Aβ1-40; assay: Step-through passive avoidance task of AD mice induced by Aβ1-40; format: in vivo; conditions: HBY 0.2 mg/kg
Method: (§2) Male Balb/c mice (18-22 g, purchased from Laboratory Centre of Shandong University) are weighed and randomly assigned to six groups as follows: a control group, a model group, a low-concentration (15 mg/kg) 6-mer-treated group, a middle-concentration (30 mg/kg) 6-mer-treated group, a high-concentration (60 mg/kg) 6-mer-treated group, and a Huperzine A-treated (HBY, with a concentration of 0.2 mg/kg) group. The mice were oral administered with corresponding drugs on day 3 after grouping. The drugs were administered once a day consecutively with a dosage of 0.5 ml/20 g until the experiment is completed. The mice of control and model groups were simultaneously administered with an equivalent amount of normal saline.
On the 25th day after Aβ injection, mice are further trained for step-through passive avoidance task. In the task, each mouse is placed in the illuminated compartment of the apparatus, facing away from the dark compartment, and the door is opened, allowing access to the dark compartment. Once the mouse enters the dark compartment, it receives an inescapable electric shock on the feet (36 V) through the stainless steel grid floor. The test is similarly performed after 24 h. The entry time of each mouse into the dark chamber (step-through latency, maximum testing limited to 3 min) and the number of entries into the dark compartment (number of errors) are recorded.
Each group has 8 animals. The data are presented as mean±SE. The symbol # means significant difference compared with the control group (P<0.05). * means significant difference compared with the model group (P<0.05). The step-through latency of Aβ1-40-treated group is shortened (P<0.01) and the error number is increased (P<0.05) compared with that of the control group, indicating the successful establishment of AD mice.

MDA = MDA content of cerebral cortex and hippocampus of Aβ1-40-induced AD mice; format: in vivo; conditions: HBY 0.2 mg/kg
ChAT = assay: Cerebral cortex ChAT activity of Aβ1-40-induced AD mice; format: in vivo; conditions: HBY 0.2 mg/kg
Na+, K+-ATPase = Na+, K+-ATPase activity in cerebral cortex and hippocampus of Aβ1-40-induced AD mice; format: in vivo; conditions: HBY 0.2 mg/kg
Method: as §1

[3] = test system: AD mice induced by Aβ1-40; assay: Morris water maze test of AD mice induced by Aβ1-40; format: in vivo
Method: as §2
On the 8th day after drug administration, mice are injected with aged Aβ1-40 except the vehicle group as the method of reference (Jhoo J H et al., β-amyloid (1-42)-induced learning and memory deficits in mice: involvement of oxidative burdens in the hippocampus and cerebral cortex. Behavioural Brain Research (2004) 155: 185-196) to induce the AD model. Aged Aβ1-40 solution is injected into the right cerebral ventricle. […] However, on the 1st day of test, this increased escape latency is shortened in all drug-treated groups except the group treated with 15 mg/kg of 6-mer. And the escape latency of 60 mg/kg 6-mer-treated group has statistical significance compared with that of the model group (P<0.05). On the 2nd and 3rd day of test, the escape latency of all drug-treated groups are shortened, wherein that of 60 mg/kg 6-mer-treated group and HBY-treated group have statistical significance compared with that of the model group (P<0.05).
On the 4th day of Morris water maze test, the original plate is removed and the percentage of time of mice staying at the phase of original plate within 60 s is recorded.

Aβ1-40 = Aβ1-40 (Homo sapiens, UniProt P05067); assay: Conformation of Aβ1-40 by CD spectra; format: biochemical; conditions: heparin (FIG. 11B)
Chain of Aβ1-40 (P05067 672-711 limits assumed): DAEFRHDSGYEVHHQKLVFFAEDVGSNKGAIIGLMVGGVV
Method: CD spectra (J-[…], JASCO, Japan) of monomeric Aβ1-40 (250 μg/ml in TBS (100 mM Tris, 50 mM NaCl, pH7.4)) incubated at 37° C. for 12 h is mainly characterized by β-sheet secondary structure (FIG. 11A).

Aβ1-40 fibril = Aβ1-40 fibril (Homo sapiens, UniProt P05067); assay: Destability of preformed Aβ1-40 fibril (TEM); format: biochemical; conditions: Aβ1-40 aged 7 d, then heparin for additional 24 h (FIG. 10B)
Chain of Aβ1-40 fibril (P05067 672-711 limits assumed): as above
Method: 1 mg/ml of distilled water-resolved Aβ1-40 is aged at 37° C. for 7d, after which it is exposed to 6-mer for 3 days.

## CN(C)C(=N)NC(=N)N [Dimethyldiguanide, dimethyldiguanide, reference compound]
[1]
  Blood glucose concentration: 201.6 ± 58.9 mg/dL

## C/C=C1\[C@H]2C=C(C)C[C@]1(N)c1ccc(=O)[nH]c1C2 [HBY, Huperzine A, reference compound]
GSH-PX; cerebral cortex
  GSH-PX (U/mg prot.) cerebral cortex: 8.85 ± 1.33 U/mg prot.
GSH-PX; hippocampus
  GSH-PX (U/mg prot.) hippocampus: 5.29 ± 0.99 U/mg prot.
SOD; cerebral cortex
  SOD activity (NU/mg prot.) cerebral cortex: 48.95 ± 2.13 NU/mg prot.
SOD; hippocampus
  SOD activity (NU/mg prot.) hippocampus: 69.91 ± 6.51 NU/mg prot.
[2]; vs model group (FIG. 5)
  step-through latency: significantly prolonged
[2]; vs model group (FIG. 6)
  number of errors: significantly reduced
MDA; cerebral cortex
  MDA content (nmol/ml) cerebral cortex: 1.61 ± 0.13 nmol/mL
MDA; hippocampus
  MDA content (nmol/ml) hippocampus: 2.26 ± 0.39 nmol/mL
ChAT
  ChAT activity (pmol/mg prot./min): 100.70 ± 5.99 pmol/mg prot./min
Na+, K+-ATPase; cerebral cortex
  ATPase activity (μmol Pi/mg prot./hour) cerebral cortex: 0.91 ± 0.05 μmol Pi/mg prot./hour
Na+, K+-ATPase; hippocampus
  ATPase activity (μmol Pi/mg prot./hour) hippocampus: 2.35 ± 10.43 μmol Pi/mg prot./hour
[3]; HBY 0.2 mg/kg oral once a day, 1st day of test
  Escape latency (s) 1st day: 76.29 ± 9.74 s
[3]; HBY 0.2 mg/kg oral once a day, 2nd day of test
  Escape latency (s) 2nd day: 64.58 ± 10.36 s
[3]; HBY 0.2 mg/kg oral once a day, 3rd day of test
  Escape latency (s) 3rd day: 63.83 ± 10.12 s
[3]; probe trial, 4th day, within 60 s, HBY 0.2 mg/kg
  Latency bias(%): 22.18 ± 5.93%

## heparin [reference compound]
Aβ1-40
  conformational transition of Aβ1-40 to β-sheet structure (CD): significantly accelerates the conformational transition to β-sheet structure
Aβ1-40 fibril
  effect on preformed Aβ1-40 fibers (TEM): become much denser and longer
